The record followed here is patent US20230181564A1, “Potent Tetrahydroquinolone Eliminates Apicomplexan Parasites” (The University of Chicago, priority 2020, published 2023).

A value given as a limit tells only on which side of the number the result lay.

Test [1] deals with T. gondii (Prugneaud strain expressing luciferase) tachyzoites. Put plainly: Acute infection with Prugneaud luciferase tachyzoites in Balb/C mice (IVIS, brain cysts). It is filed as in vivo, Toxoplasma gondii. The method, then: IVIS. Balb/C mice were infected intraperitoneally (IP) with 20×10^3 T. gondii (Prugneaud strain expressing luciferase) tachyzoites. Treatment began 2 hours later with JAG21 (5 mg/kg) which was dissolved in DMSO, administered IP in a total volume of 0.05 ml. Mice were imaged every second day starting on day 4 post infection using an IVIS Spectrum (Caliper Life Sciences) for […], with medium binning, 20 minutes post injection with 150 mg/kg of D-luciferin potassium salt solution.
Brain cysts. Brain cysts were searched for in paraffin imbedded tissue of the surviving Prugneaud strain infected treated Balb/C mice in the IVIS study, 30 days after infection which was 16 days after treatment had been discontinued. All treated mice had survived. There were no surviving untreated mice in those experiments.

In test [2] the test system is T. gondii RH-YFP tachyzoites. Put plainly: Synergy studies with RH strain YFP tachyzoites. It is filed as cell-based, Toxoplasma gondii. Here is the method: Synergy studies with RH strain YFP Tachyzoites. Atovaquone and pyrimethamine were used to test whether they are synergistic with JAG21. Serial dilutions of the combination of JAG21 and either atovaquone or pyrimethamine were used in an in vitro challenge assay as described above. The EC50 of each compound and the combination of two compounds were determined. The effect of the combination of drugs was calculated with the following formula: C=[A]c/[A]a+[B]c/[B]a. If C is lower than 1, the two compounds tested have synergistic effect; if C is greater than 1, the two compounds tested have antagonist effect and if C is 1 they are additive.

In test [3] the test system is T. gondii mitochondrial membrane potential (cytochrome bc). Put plainly: Mitochondrial membrane potential by the safranine method (T. gondii, compared with HFF). The test is classed as cell-based, Toxoplasma gondii. To be noted: permeabilized tachyzoites, safranin O. The method, then: T.gondii and HFF Mitochondrial Membrane Potential Measurements—the mitochondrial membrane potential was measured by the safranine method according to Vercesi et al, 1998). Freshly egressed T. gondii tachyzoites were filtered and washed twice with intracellular buffer (125 mM sucrose, 65 mM KCl, 10 mM HEPES-KOH buffer, pH 7.2, 1 mM MgCl2 and 2.5 mM potassium phosphate). After washing, the parasites were resuspended in the same buffer at 10^9/ml. An aliquot of 50 μL of this suspension was added to a cuvette containing Safranin 0, 2.5 μM and Succinate 1 mM in final volume of 2 mL of the intracellular buffer. The fluorescence was measured with a Hitachi 7000 spectrofluorometer with setting Ex. 495/Em. 586. Once the baseline fluorescence is testable, 30 μM digitonin was added to permeabilize the parasites. 85 seconds after permeabilization, the THQ derivatives, dissolved in DMSO, were added. 5 μM of FCCP (Carbonyl cyanide-4-(trifluoromethoxy) phenylhydrazone) was used as an uncoupler reference for calculations and its effect was considered 100%. Similar conditions for measuring the mitochondrial potential of mammalian cells were used with the following changes: the mammalian cells were re-suspended at 10^8/ml. 50 μl of mammalian cells was also used for each run in a cuvette with […]. The substrate used for mammalian cells was 5 mM glutamate and 5 mM malate. A higher concentration of digitonin (50 μM) was used to permeabilize the mammalian cells. The compounds were added at about 400 seconds after permeabilization. Each experiment was repeated at least three times in duplicates. Statistical analysis, unpaired student t test, was performed using GraphPad Prism 8.0 (GraphPad Software, Inc., San Diego, Calif.).
Mitochondrial membrane potential measurements were performed with permeabilized T.gondii tachyzoites in suspension using safranin O, which loads into polarized membranes. T. gondii tachyzoites were permeabilized with digitonin to allow the mitochondrial substrate succinate to cross the membrane and energize the mitochondrion. The fluorescence of safranin O, which loads into energized mitochondria was used to measure the membrane potential. The energized state of the mitochondrion is observed by a decrease in fluorescence (FIGS. 3A,C,E). Trifluoromethoxy carbonylcyanide phenylhydrazone (FCCP) was used to depolarize the membrane, which causes the fluorescence to go up as shown in FIG. 3A. JAG21 depolarized the membrane potential even at concentrations as low as 2 nM (FIG. 3C,D). JAG21 and Atovaquone had similar effects on the mitochondrial membrane potential (FIG. 3D). […] The effect of these THQ compounds against the T. gondii mitochondrial membrane potential was greater than the effect on the human foreskin fibroblast membrane potential (FIG. 3E,F). […]

For the compound `Cc1[nH]c2c(c(=O)c1-c1ccc(Oc3ccc(OC(F)(F)F)cc3)cc1)CCCC2` [JAG021, 2-methyl-3-(4-(4-(trifluoromethoxy)phenoxy)phenyl)-5,6,7,8-tetrahydroquinolin-4-one], in test [1] (5 mg/kg/day IP), the “Luciferase tachyzoites in luminescence studies” value is “eliminates illness and T. gondii Type II Prugneaud luciferase tachyzoites completely”. The Cysts in brains entry in test [1] (5 mg/kg/day for 14 days from start of infection, brains evaluated at 30 days) was “no cysts being found”. Besides, the “Survival of infected mice” value in test [1] (Balb/C mice, JAG21 5 mg/kg IP for 14 days) was found to be 100%. Moreover, the “Combination with atovaquone against RH strain tachyzoites” value in test [2] (isobologram) is “synergy”. For the same compound, the “Combination with pyrimethamine against RH strain tachyzoites” value in test [2] (no synergy) is recorded as “no antagonism”. In addition, in test [3], the “Concentration depolarizing the T. gondii mitochondrial membrane potential” value is given as at most 2 nM.
